From patent US10722505B2, “Substituted 2,4 diamino-quinoline as new anticancer agents” (GENOSCIENCE PHARMA, priority 2014, dated 2020) come the findings set out here.

Common to all, as to type: cell-based
The test system of test [1] is CPP19 liver metastatic CRC patient-derived cells. As to the kind of experiment: CellTiter-Glo growth inhibition, liver metastatic CRC patient-derived cells CPP19. The following applies: Homo sapiens; CPP19, 72 h. The text has this: (§1) Patient derived liver metastasis cells (CPP19, 30, 36 and CPP45—see table 1 for clinical descriptions) were maintained in complete DMEM (Gibco) with 10% FBS. Cells were obtained from biopsies provided by CHU-Caremeau (Nimes, France) within an approved protocol. Signed informed consents were obtained from patients prior to samples acquisition in accordance with all ethical and legal aspects. Tumors were washed, minced into fragments (<2 mm^3) and digested with liberase H (0.26 U/mL, Roche) resuspended in Accumax (Sigma-Aldrich). After 2 hours at 37° C., cell suspension was filtered through a […] to obtain a single cell suspension and plated in DMEM medium, supplemented with FBS, glutamine, antibiotics and non-essential aminoacids. When a monolayer of patient-derived tumor cells was formed, cells were detached using trypsin/EDTA and resuspended in DMEM with 10% FBS (for adherent cells) or defined M11 media (for sphere formation). Cells were cultured in a humidified atmosphere at 37° C. and 5% CO2.
(§2) Cells were plated at 10^4 cells per well in P96 well plates in DMEM with 10% FBS. After 24 hours, cells were treated with compound 2-3 and cell viability was assessed 72 h post-treatment by CellTiter-Glo® Luminescent Cell Viability Assay (Promega). EC50 were calculated using GraphPad Prism Software v6 (Graphpad Software, Inc La Jolla, Calif.). […]
(ATP-based viability assays read luminescence as a measure of living cells.)

The subject of test [2] is CPP45 liver metastatic CRC patient-derived cells. As to the kind of experiment: CellTiter-Glo growth inhibition, liver metastatic CRC patient-derived cells CPP45. The following applies: Homo sapiens; CPP45, 72 h.
Description: as §1, §2

A further test deals with HCT-116 cell line. As to the kind of experiment: CellTiter-Glo growth inhibition assay, HCT-116. The following applies: Homo sapiens; HCT-116, colorectal carcinoma, 72 h. How it is done: All cell lines were maintained in medium containing 1% penicillin-streptomycin (Dutscher, P06-07100) and 10% Fetal Bovine Serum (Gibco, W3387L) except 20% for KG-1 cell line and PBMC, and cultured at 37° C. with 5% CO2.
HepG2, Huh7, HCT-116, MDA-MB-231 and A375 cell lines were cultured in Dulbecco's modified Eagle's medium (Dutscher, L0103).
Cell viability was measured using the CellTiter-Glo® luminescent cell viability assay as described by the manufacturer (Promega, Ref G7571) using an Infinite F200Pro luminometer (Tecan). Briefly, for adherent cells, cells were plated onto 96-well plates (white with clear bottom) in 90 μL of media per well and were allowed to grow overnight before the assay. For cells growing in suspension, cells were plated onto 96-well plates immediately before the assay.
Compounds were added at different concentrations to each well, and cell cultures were incubated for 72 h. Vehicle (H2O) was used as a control, and all compounds were tested in a constant percentage of H2O. After addition of 100 μL of CellTiter-Glo®, luminescence was measured using an Infinite F200Pro (Tecan). EC50 values were determined as the dose of compound required to reduce luminescent values to 50% of the signal obtained for untreated cell cultures. The experimental data were analyzed using a computer program, Graphpad Prism v5 (GraphPad Software, Inc. La Jolla, Calif.). […]

Counter-ions that a name gives are not always drawn.

One may read the EC50 as the concentration giving half of the maximal effect. A higher EC50 goes with weaker potency. For `CC(C)(C)NC1CCN(c2cc(NCc3ccc(Cl)cc3)nc3ccccc23)CC1` [Compound 2-3, 2-(4-chlorobenzylamino)-4-(4-tert-butylaminopiperidin-1-yl)-quinoline hydrochloride salt], the results for the EC50 (in test [1]; in test [2]; with HCT-116 cell line) were 1.88 µM, 1.12 µM and 1.6 µM, respectively.
